From ChEMBL document CHEMBL1201862, “PubChem BioAssay data set” (2004)
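In this assay, cells in 96-well plates receive the compound at five concentrations for 48 hours. Endpoints are linearly interpolated between the surrounding concentrations. The concentration for 50% growth inhibition is given as GI50.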 Active and inactive are the calls of the source. Cut-off read from the data, not from the text of the source: active = GI50 up to about 1.1 µM and inactive = higher.

Experiments:
Assay in all cases: NCI anticancer screen, dose series, 48 h
BT-549 = test system: BT-549
SK-MEL-5 = test system: SK-MEL-5
MDA-MB-231 = test system: MDA-MB-231
SN12C = test system: SN12C
KM12 = test system: KM12
HCT-116 = test system: HCT-116
M14 = test system: M14
OVCAR-8 = test system: OVCAR-8
MDA-MB-435 = test system: MDA-MB-435
MCF7 = test system: MCF7
COLO 205 = test system: COLO 205
UO-31 = test system: UO-31
HL-60 = test system: HL-60
CAKI-1 = test system: CAKI-1
HCC 2998 = test system: HCC 2998
IGROV-1 = test system: IGROV-1
SK-MEL-2 = test system: SK-MEL-2
LOX IMVI = test system: LOX IMVI
CCRF-CEM = test system: CCRF-CEM
MDA-N = test system: MDA-N
PC-3 = test system: PC-3
DU-145 = test system: DU-145
NCI-H522 = test system: NCI-H522
TK-10 = test system: TK-10
SNB-75 = test system: SNB-75
HCT-15 = test system: HCT-15
NCI-H460 = test system: NCI-H460
SK-OV-3 = test system: SK-OV-3
Hs-578T = test system: Hs-578T
OVCAR-4 = test system: OVCAR-4
SK-MEL-28 = test system: SK-MEL-28
Malme-3M = test system: Malme-3M
K562 = test system: K562
U-251 = test system: U-251
SF-268 = test system: SF-268
A549 = test system: A549
NCI-H23 = test system: NCI-H23
NCI/ADR-RES = test system: NCI/ADR-RES
ACHN = test system: ACHN
NCI-H226 = test system: NCI-H226
UACC-257 = test system: UACC-257
SNB-19 = test system: SNB-19
RPMI-8226 = test system: RPMI-8226
RXF 393 = test system: RXF 393
SR = test system: SR
HOP-62 = test system: HOP-62
HOP-92 = test system: HOP-92
786-0 = test system: 786-0
SF-539 = test system: SF-539
A498 = test system: A498
SF-295 = test system: SF-295
UACC-62 = test system: UACC-62
T47D = test system: T47D
SW-620 = test system: SW-620
OVCAR-3 = test system: OVCAR-3
EKVX = test system: EKVX
HT-29 = test system: HT-29
OVCAR-5 = test system: OVCAR-5
MOLT-4 = test system: MOLT-4

Measured: GI50

C[N+](C)(C)CCN(Cc1cccs1)c1ccccn1
> 100 µM: HCT-15
inactive: BT-549 47.5 µM | SK-MEL-5 > 100 µM | MDA-MB-231 > 100 µM | SN12C 90.4 µM | KM12 > 100 µM | HCT-116 > 100 µM | M14 > 100 µM | OVCAR-8 > 100 µM | MDA-MB-435 > 100 µM | MCF7 > 100 µM | COLO 205 35.2 µM | UO-31 > 100 µM | HL-60 > 100 µM | CAKI-1 > 100 µM | HCC 2998 > 100 µM | IGROV-1 > 100 µM | SK-MEL-2 > 100 µM | LOX IMVI > 100 µM | CCRF-CEM > 100 µM | MDA-N > 100 µM | PC-3 > 100 µM | DU-145 > 100 µM | NCI-H522 40.8 µM | TK-10 > 100 µM | SNB-75 59.8 µM | NCI-H460 > 100 µM | SK-OV-3 > 100 µM | Hs-578T 74.5 µM | OVCAR-4 > 100 µM | SK-MEL-28 > 100 µM | Malme-3M > 100 µM | K562 64.3 µM | U-251 > 100 µM | SF-268 86.7 µM | A549 68.9 µM | NCI-H23 88.1 µM | NCI/ADR-RES > 100 µM | ACHN > 100 µM | NCI-H226 > 100 µM | UACC-257 > 100 µM | SNB-19 > 100 µM | RPMI-8226 > 100 µM | RXF 393 > 100 µM | SR > 100 µM | HOP-62 > 100 µM | HOP-92 3.6 µM | 786-0 > 100 µM | SF-539 > 100 µM | A498 > 100 µM | SF-295 > 100 µM | UACC-62 > 100 µM | T47D > 100 µM | SW-620 > 100 µM | OVCAR-3 35.7 µM

CCCC[C@@H]1CCN2C[C@@H](O)[C@@H](O)[C@@H]2[C@H]1O
> 100 µM: HCT-15
inactive: BT-549 > 100 µM | SK-MEL-5 > 100 µM | MDA-MB-231 > 100 µM | EKVX > 100 µM | SN12C > 100 µM | HT-29 > 100 µM | KM12 > 100 µM | HCT-116 > 100 µM | M14 > 100 µM | OVCAR-8 > 100 µM | MDA-MB-435 > 100 µM | MCF7 > 100 µM | COLO 205 > 100 µM | UO-31 > 100 µM | HL-60 > 100 µM | CAKI-1 > 100 µM | HCC 2998 > 100 µM | IGROV-1 > 100 µM | SK-MEL-2 > 100 µM | LOX IMVI > 100 µM | CCRF-CEM > 100 µM | MDA-N > 100 µM | PC-3 > 100 µM | DU-145 > 100 µM | NCI-H522 > 100 µM | SNB-75 89.9 µM | NCI-H460 > 100 µM | SK-OV-3 > 100 µM | OVCAR-5 > 100 µM | Hs-578T > 100 µM | OVCAR-4 > 100 µM | SK-MEL-28 > 100 µM | Malme-3M > 100 µM | K562 > 100 µM | U-251 > 100 µM | SF-268 > 100 µM | A549 > 100 µM | NCI-H23 > 100 µM | MOLT-4 > 100 µM | NCI/ADR-RES > 100 µM | ACHN > 100 µM | NCI-H226 > 100 µM | UACC-257 > 100 µM | SNB-19 > 100 µM | RPMI-8226 > 100 µM | RXF 393 > 100 µM | SR > 100 µM | HOP-92 > 100 µM | 786-0 > 100 µM | SF-539 > 100 µM | A498 > 100 µM | SF-295 > 100 µM | UACC-62 > 100 µM | T47D > 100 µM | SW-620 > 100 µM | OVCAR-3 > 100 µM

COc1cc2c(cc1OC)CN1CCc3ccccc3CC1C2 (centres undefined)
39.4 µM: HCT-15
inactive: BT-549 31.3 µM | SK-MEL-5 27.1 µM | MDA-MB-231 > 100 µM | EKVX 47.3 µM | SN12C 40.7 µM | HT-29 12.6 µM | KM12 33.1 µM | HCT-116 23.8 µM | M14 30.1 µM | OVCAR-8 44.1 µM | MDA-MB-435 86.5 µM | MCF7 25.6 µM | COLO 205 25.1 µM | UO-31 22.9 µM | HL-60 27.2 µM | CAKI-1 42.4 µM | HCC 2998 28.8 µM | IGROV-1 17.5 µM | SK-MEL-2 34.3 µM | LOX IMVI 39 µM | CCRF-CEM 36.9 µM | MDA-N 44.1 µM | PC-3 41.7 µM | DU-145 37.6 µM | TK-10 13.7 µM | SNB-75 29 µM | NCI-H460 26.3 µM | SK-OV-3 53.5 µM | OVCAR-5 > 100 µM | Hs-578T > 100 µM | OVCAR-4 16.1 µM | SK-MEL-28 63.1 µM | Malme-3M 25.8 µM | K562 32.9 µM | U-251 93.1 µM | A549 49.7 µM | NCI-H23 31.9 µM | MOLT-4 28.8 µM | NCI/ADR-RES 54.7 µM | ACHN 22.6 µM | NCI-H226 42.1 µM | UACC-257 51.4 µM | SNB-19 52 µM | HOP-62 65.8 µM | HOP-92 12.5 µM | 786-0 36.3 µM | SF-539 34.4 µM | A498 43.3 µM | SF-295 34.6 µM | UACC-62 23.6 µM | T47D 22.5 µM | SW-620 37.8 µM | OVCAR-3 97.5 µM
active: SR 0.208 µM

CN(/N=C/c1ccc(Cl)c(Cl)c1)C1=NCCCCN1
inactive: BT-549 31 µM | SK-MEL-5 14.6 µM | MDA-MB-231 32 µM | EKVX > 100 µM | SN12C 42 µM | HT-29 29.2 µM | KM12 19.6 µM | HCT-116 24.4 µM | M14 15.4 µM | OVCAR-8 72.3 µM | MDA-MB-435 16.3 µM | MCF7 19.8 µM | COLO 205 16.7 µM | HL-60 19.3 µM | CAKI-1 23.9 µM | HCC 2998 24.9 µM | IGROV-1 52.6 µM | SK-MEL-2 20.1 µM | LOX IMVI 13.2 µM | CCRF-CEM 31 µM | MDA-N 19.9 µM | PC-3 25.3 µM | DU-145 91.2 µM | NCI-H522 17.8 µM | TK-10 69.8 µM | SNB-75 50.2 µM | NCI-H460 42.5 µM | SK-OV-3 53.3 µM | OVCAR-5 27.9 µM | Hs-578T 61 µM | OVCAR-4 44.1 µM | Malme-3M 17.8 µM | K562 21.4 µM | U-251 26.6 µM | SF-268 51.2 µM | A549 62.4 µM | NCI-H23 55.5 µM | MOLT-4 21.8 µM | NCI/ADR-RES 66.8 µM | ACHN 44.6 µM | NCI-H226 2.45 µM | UACC-257 22.6 µM | SNB-19 45.4 µM | RPMI-8226 27.9 µM | SR 41.3 µM | HOP-62 16.7 µM | HOP-92 18.9 µM | 786-0 20.6 µM | SF-539 29.3 µM | A498 18.2 µM | SF-295 34.4 µM | UACC-62 23 µM | T47D 16.6 µM | SW-620 15.6 µM | OVCAR-3 41.6 µM
26.2 µM: HCT-15

CN(C)Cc1cc(C(=O)/C=C/c2ccc(O)cc2)cc(CN(C)C)c1O
44.5 µM: HCT-15
inactive: BT-549 79.4 µM | SK-MEL-5 18.5 µM | MDA-MB-231 25.2 µM | EKVX 70 µM | SN12C 23 µM | HT-29 79.3 µM | KM12 24.4 µM | HCT-116 38.2 µM | M14 27.6 µM | OVCAR-8 81.7 µM | MDA-MB-435 35.4 µM | MCF7 43.2 µM | COLO 205 19.4 µM | UO-31 63 µM | HL-60 19.1 µM | CAKI-1 28.8 µM | HCC 2998 79.4 µM | IGROV-1 45.4 µM | SK-MEL-2 30.3 µM | LOX IMVI 29.7 µM | CCRF-CEM 24.8 µM | MDA-N 37.7 µM | PC-3 47.4 µM | DU-145 53.6 µM | NCI-H522 23.4 µM | TK-10 53.7 µM | SNB-75 26.7 µM | NCI-H460 23.7 µM | OVCAR-5 42.1 µM | Hs-578T 60.5 µM | SK-MEL-28 25.9 µM | K562 29.5 µM | U-251 16 µM | SF-268 72.4 µM | A549 > 100 µM | NCI-H23 79.6 µM | MOLT-4 26.7 µM | NCI/ADR-RES > 100 µM | ACHN 20.9 µM | NCI-H226 > 100 µM | UACC-257 46.2 µM | SNB-19 > 100 µM | RPMI-8226 17.9 µM | RXF 393 59.8 µM | SR 23.1 µM | HOP-62 38 µM | HOP-92 30.2 µM | 786-0 34.4 µM | SF-539 55 µM | A498 31.8 µM | SF-295 86.3 µM | UACC-62 36.6 µM | T47D 49.9 µM | SW-620 39.4 µM | OVCAR-3 18.9 µM
